Legend:
Assay type in all cases: cell-based
Alternaria solani = Alternaria solani liquid culture growth inhibition; conditions: for (B2) Inhibition (%) / (B4) Inhibition (%) / (B5) Inhibition (%): PDB; for (B2) Inhibition (%): Table 9; for (B4) Inhibition (%): Table 11; for (B5) Inhibition (%): Table 13
Method: (§1) Liquid Culture Tests in Well Plates
Mycelia fragments or conidia suspensions of a fungus, prepared either freshly from liquid cultures of the fungus or from cryogenic storage, were directly mixed into nutrient broth. DMSO solutions of the test compound (max. 10 mg/ml) was diluted with 0.025% Tween20 by factor 50 and 10 μl of this solution was pipetted into a microtiter plate (96-well format). […] The test plates were incubated in the dark at 24° C. and 96% rh. The inhibition of fungal growth was determined photometrically and visually after 2-4 days, depending on the pathosystem, and percent antifungal activity relative to the untreated check was calculated.
Alternaria solanil/Liquid Culture:
(§2) Conidia of the fungus from cryogenic storage were directly mixed into nutrient broth (PDB potato dextrose broth). After placing a (DMSO) solution of test compound into a microtiter plate (96-well format), the nutrient broth containing the fungal spores was added.

Gaeumannomyces graminis = Gaeumannomyces graminis liquid culture growth inhibition; conditions: in PDB
Method: as §1
(§3) Mycelia fragments or conidia suspensions of a fungus, prepared either freshly from liquid cultures of the fungus or from cryogenic storage, were directly mixed into nutrient broth. DMSO solutions of the test compound (max. 10 mg/ml) was diluted with 0.025% Tween20 by factor 50 and 10 μl of this solution was pipetted into a microtiter plate (96-well format). The nutrient broth containing the fungal spores/mycelia fragments was then added to give an end concentration of the tested compound. The test plates were incubated in the dark at 24° C. and 96% rh. The inhibition of fungal growth was determined photometrically and visually after 2-4 days, depending on the pathosystem, and percent antifungal activity relative to the untreated check was calculated.
Gaeumannomyces graminis/Liquid Culture:
Mycelial fragments of the fungus from cryogenic storage were directly mixed into nutrient broth (PDB potato dextrose broth). After placing a (DMSO) solution of test compound into a microtiter plate (96-well format), the nutrient broth containing the fungal spores was added.

[1] = test system: Botryotinia fuckeliana (Botrytis cinerea); experiment: Botryotinia fuckeliana (Botrytis cinerea) liquid culture growth inhibition; conditions: in Vogels Broth
Method: as §1, §3
Botryotinia fuckeliana (Botrytis cinerea)/Liquid Culture:
Conidia of the fungus from cryogenic storage were directly mixed into nutrient broth (Vogels broth). After placing a (DMSO) solution of test compound into a microtiter plate (96-well format), the nutrient broth containing the fungal spores was added.

[2] = test system: Monographella nivalis (Microdochium nivale); experiment: Monographella nivalis (Microdochium nivale) liquid culture growth inhibition
Method: as §1, §3
Monographella nivalis (Microdochium nivale)/Liquid Culture:
as §2

Fusarium culmorum = Fusarium culmorum liquid culture growth inhibition; conditions: in PDB
Method: as §1, §3
Fusarium culmorum/Liquid Culture:
as §2

[3] = test system: Mycosphaerella graminicola (Septoria tritici); experiment: Mycosphaerella graminicola (Septoria tritici) liquid culture growth inhibition; conditions: for (B4) Inhibition (%) / (B5) Inhibition (%): PDB; for (B4) Inhibition (%): Table 12; for (B5) Inhibition (%): Table 14
Method: as §1, §3
Mycosphaerella graminicola (Septoria tritici)/Liquid Culture:
as §2

Pythium ultimum = Pythium ultimum (seedling damping off) liquid culture growth inhibition; conditions: 0.0625 ppm; PDB; Table 10
Method: as §1, §3
Pythium ultimum Seedling Damping Off)/Liquid Culture:
Mycelia fragments and oospores of a newly grown liquid culture of the fungus were directly mixed into nutrient broth (PDB potato dextrose broth). After placing a (DMSO) solution of the test compounds into a microtiter plate (96-well format), the nutrient broth containing the fungal mycelia/spore mixture was added.

[4] = Monographella nivalis, read-out: (B10) Inhibition (%)
[5] = Zymoseptoria tritici, read-out: (B10) Inhibition (%)

## C=CCSC(=O)n1c(N)c(-c2ccccc2C)c(=O)n1C(C)C [(B2), fenpyrazamine]
Alternaria solani; 0.0313 ppm
  (B2) Inhibition (%): 0%
Alternaria solani; 0.0625 ppm
  (B2) Inhibition (%): 1%

## CNC(=O)C(OC)c1ccccc1COc1cc(C)ccc1C (stereo not drawn) [(B11), mandestrobin, reference compound]
Gaeumannomyces graminis; 0.0500 ppm
  (B11) Inhibition (%): 17%
Gaeumannomyces graminis; 0.1000 ppm
  (B11) Inhibition (%): 53%
[1]; 0.0016 ppm
  (B11) Inhibition (%): 5%
[1]; 0.0250 ppm
  (B11) Inhibition (%): 0%
[1]; 0.0500 ppm
  (B11) Inhibition (%): 8%
[2]; 0.0250 ppm, in PDB
  (B11) Inhibition (%): 0%
Fusarium culmorum; 0.1000 ppm
  (B11) Inhibition (%): 0%
Fusarium culmorum; 0.2000 ppm
  (B11) Inhibition (%): 11%
Alternaria solani; 0.0008 ppm, in PDB
  (B11) Inhibition (%): 0%
Alternaria solani; 0.0016 ppm, in PDB
  (B11) Inhibition (%): 3%
Alternaria solani; 0.0031 ppm, in PDB
  (B11) Inhibition (%): 0%
Alternaria solani; 0.0063 ppm, in PDB
  (B11) Inhibition (%): 12%

## Cc1cc(C(F)(F)F)nn1CC(=O)N1CCC(c2nc(C3=NOC(c4c(F)cccc4F)C3)cs2)CC1 (stereo not drawn) [(B4), oxathiapiprolin]
[3]; 0.0313 ppm
  (B4) Inhibition (%): 8%
[3]; 0.0625 ppm
  (B4) Inhibition (%): 4%
Alternaria solani; 0.0039 ppm
  (B4) Inhibition (%): 0%
Alternaria solani; 0.0078 ppm
  (B4) Inhibition (%): 4%
Alternaria solani; 0.0156 ppm
  (B4) Inhibition (%): 0%
Alternaria solani; 0.0313 ppm
  (B4) Inhibition (%): 0%
Pythium ultimum
  (B4) Inhibition (%): 61%

## CO/C=C(/C(=O)OC)c1ccccc1COc1ccc(C(F)(F)F)cc1Cl [(B6), flufenoxystrobin, reference compound]
[1]; 0.0063 ppm
  (B6) Inhibition (%): 17%
[1]; 0.0125 ppm
  (B6) Inhibition (%): 23%
[1]; 0.0250 ppm
  (B6) Inhibition (%): 33%
[2]; 0.0008 ppm, in PDB
  (B6) Inhibition (%): 23%
[2]; 0.0016 ppm, in PDB
  (B6) Inhibition (%): 51%
[3]; 0.0031 ppm, in PDB
  (B6) Inhibition (%): 17%
[3]; 0.0063 ppm, in PDB
  (B6) Inhibition (%): 23%
[3]; 0.0125 ppm, in PDB
  (B6) Inhibition (%): 33%
Fusarium culmorum; 0.0500 ppm
  (B6) Inhibition (%): 5%
Fusarium culmorum; 0.1000 ppm
  (B6) Inhibition (%): 3%
Fusarium culmorum; 0.2000 ppm
  (B6) Inhibition (%): 12%
Alternaria solani; 0.0016 ppm, in PDB
  (B6) Inhibition (%): 6%
Alternaria solani; 0.0063 ppm, in PDB
  (B6) Inhibition (%): 1%

## CC1CC(C)(C)c2c(F)ccc(NC(=O)c3cn(C)nc3C(F)F)c21 (stereo not drawn) [(B9)]
[1]; Botrytis cinerea, 0.0039 ppm, read-out: (B9) Inhibition (%)
  inhibition at 0.0039 ppm: 14%
[1]; Botrytis cinerea, 0.0078 ppm, read-out: (B9) Inhibition (%)
  inhibition at 0.0078 ppm: 19%
[1]; Botrytis cinerea, 0.0156 ppm, read-out: (B9) Inhibition (%)
  inhibition at 0.0156 ppm: 31%
[1]; Botrytis cinerea, 0.0313 ppm, read-out: (B9) Inhibition (%)
  inhibition at 0.0313 ppm: 52%
[2]; Monographella nivalis, 0.1250 ppm, in PDB, read-out: (B9) Inhibition (%)
  inhibition at 0.125 ppm: 0%
[2]; Monographella nivalis, 0.5000 ppm, in PDB, read-out: (B9) Inhibition (%)
  inhibition at 0.5 ppm: 0%
[2]; Monographella nivalis, 1.0000 ppm, in PDB, read-out: (B9) Inhibition (%)
  inhibition at 1 ppm: 10%
[3]; Zymoseptoria tritici, 0.0039 ppm, in PDB, read-out: (B9) Inhibition (%)
  inhibition at 0.0039 ppm: 0%
[3]; Zymoseptoria tritici, 0.0156 ppm, in PDB, read-out: (B9) Inhibition (%)
  inhibition at 0.0156 ppm: 0%
[3]; Zymoseptoria tritici, 0.0313 ppm, in PDB, read-out: (B9) Inhibition (%)
  inhibition at 0.0313 ppm: 9%
[3]; Zymoseptoria tritici, 0.0625 ppm, in PDB, read-out: (B9) Inhibition (%)
  inhibition at 0.0625 ppm: 7%
Alternaria solani; Alternaria solani, 0.0078 ppm, in PDB, read-out: (B9) Inhibition (%)
  inhibition at 0.0078 ppm: 0%
Alternaria solani; Alternaria solani, 0.0156 ppm, in PDB, read-out: (B9) Inhibition (%)
  inhibition at 0.0156 ppm: 11%
Alternaria solani; Alternaria solani, 0.0313 ppm, in PDB, read-out: (B9) Inhibition (%)
  inhibition at 0.0313 ppm: 5%
Alternaria solani; Alternaria solani, 0.0625 ppm, in PDB, read-out: (B9) Inhibition (%)
  inhibition at 0.0625 ppm: 22%

## CCCCc1c(C)c2ccc(OCc3ccccc3/C(=C\OC)C(=O)OC)cc2oc1=O [(B10), coumoxystrobin, reference compound]
[2]; [4]
  inhibition at 0.0008 ppm: 46%
  inhibition at 0.0016 ppm: 81%
[3]; [5]
  inhibition at 0.0016 ppm: 5%
  inhibition at 0.0031 ppm: 13%
  inhibition at 0.0063 ppm: 31%
Fusarium culmorum; Fusarium culmorum, 0.0500 ppm, read-out: (B10) Inhibition (%)
  inhibition at 0.05 ppm: 12%
Fusarium culmorum; Fusarium culmorum, 0.1000 ppm, read-out: (B10) Inhibition (%)
  inhibition at 0.1 ppm: 8%
Fusarium culmorum; Fusarium culmorum, 0.2000 ppm, read-out: (B10) Inhibition (%)
  inhibition at 0.2 ppm: 11%

## CCN(C)/C=N/c1cc(C)c(Oc2nc(Cc3ccc(Cl)cc3)ns2)cc1C [(B14), N′-[4-[[3-[(4-chlorophenyl)methyl]-1,2,4-thiadiazol-5-yl]oxy]-2,5-dimethylphenyl]-N-ethyl-N-methyl-methanimidamide, reference compound]
[2]; Monographella nivalis, (B14) compound of formula IV alone at 0.2500 ppm, in PDB
  inhibition at 0.25 ppm: 40%

## COC(=O)N(OC)c1ccccc1COc1nc(Cl)c(Cl)cc1Cl [(B13), triclopyricarb, reference compound]
[1]; (B13) triclopyricarb alone at 0.0125 ppm
  (B13) Inhibition (%): 8%
[1]; (B13) triclopyricarb alone at 0.0250 ppm
  (B13) Inhibition (%): 18%
[2]; (B13) triclopyricarb alone at 0.0016 ppm, in PDB
  (B13) Inhibition (%): 23%
[2]; (B13) triclopyricarb alone at 0.0031 ppm, in PDB
  (B13) Inhibition (%): 51%
Fusarium culmorum; 0.0500 ppm
  (B13) Inhibition (%): 11%
Fusarium culmorum; 0.1000 ppm
  (B13) Inhibition (%): 10%
Fusarium culmorum; 0.2000 ppm
  (B13) Inhibition (%): 11%

## CC(=O)Oc1c(C)c(C)nc2c(F)cc(C(C)(C)C)cc12 [(B12), tebufloquin, reference compound]
[1]; 0.0313 ppm
  (B12) Inhibition (%): 5%
[1]; 0.1250 ppm
  (B12) Inhibition (%): 0%
[2]; 0.2500 ppm, in PDB
  (B12) Inhibition (%): 7%
[2]; 0.5000 ppm, in PDB
  (B12) Inhibition (%): 60%
Alternaria solani; 0.0156 ppm, in PDB
  (B12) Inhibition (%): 0%
Alternaria solani; 0.0313 ppm, in PDB
  (B12) Inhibition (%): 1%

## Cc1ccc(C(=O)NC[C@@H](NC(=O)OCC(F)(F)F)C(C)C)cc1 [(B5), tolprocarb]
[3]; 0.0391 ppm
  (B5) Inhibition (%): 7%
[3]; 0.0781 ppm
  (B5) Inhibition (%): 1%
[3]; 0.1563 ppm
  (B5) Inhibition (%): 4%
[3]; 0.6250 ppm
  (B5) Inhibition (%): 1%
Alternaria solani; 0.0391 ppm
  (B5) Inhibition (%): 0%
Alternaria solani; 0.0781 ppm
  (B5) Inhibition (%): 0%
Alternaria solani; 0.3125 ppm
  (B5) Inhibition (%): 0%
